Assay results reported in patent US20120276200A1, “FORMULATIONS OF QUINOLINONES” (priority 2005, published 2012).

Assay: Hygroscopicity, DVS experiment (moisture induced weight change)
Format: physicochemical
Protocol: All DVS measurements were carried out at 2.5% relative humidity change per hour.

Moisture induced % weight change (55% RH, listed as Lactate trial 3)	Water uptake in DVS experiment (RH above 90%, not completely reversible)	Hygroscopicity in DVS experiment (below about 80% RH)	Moisture induced % weight change (55% RH, listed as Malate trial 3)	Moisture induced % weight change (95% RH, listed as Malate trial 3)	SMILES
0.08%	significant water uptake	not hygroscopic			CC(O)C(=O)O.CN1CCN(c2ccc3nc(-c4c(N)c5c(F)cccc5[nH]c4=O)[nH]c3c2)CC1 [Lactate trial 1, Lactic Acid salt of 4-Amino-5-fluoro-3-[6-(4-methyl-piperazin-1-yl)-1H-benzimidazol-2-yl]-1H-quinolin-2-one]
			0.08%	0.30%	CN1CCN(c2ccc3nc(-c4c(N)c5c(F)cccc5[nH]c4=O)[nH]c3c2)CC1.O=C(O)CC(O)C(=O)O [Malate trial 1]
